{"source": "patent US8551976B2", "about": "“Prochelators for inhibiting metal-promoted oxidative stress” (Duke University, priority 2011, dated 2013)", "test": "Hydrogen Peroxide Oxidation (LC-MS analysis of prochelator conversion)", "format": "physicochemical", "conditions": "2 mM B-HAPI in water/DMSO, addition of 50 μl concentrated (30%) H2O2, room temperature, 1 h, data not shown", "description": "Hydrogen Peroxide Oxidation. A 40 mM stock solution of B-HAPI in DMSO was prepared. The reaction mixture (2 mM B-HAPI) was prepared by mixing […] of the B-HAPI stock solution with 450 μl of water and 450 μl of DMSO. The reaction was initiated by addition of 50 μl of concentrated (30%) H2O2 solution. The reaction mixture was incubated at room temperature for 1 h and analyzed by LC-MS.", "data": [{"smiles": "C/C(=N\\NC(=O)c1ccncc1)c1ccccc1OCc1ccc(B2OC(C)(C)C(C)(C)O2)cc1", "note": "[B-HAPI, N′-(1-(2-(4-(4,4,5,5-tetramethyl-1,3,2-dioxaborolan-2-yl)benzyloxy)phenyl)ethylidene)isonitotinohdrazide]", "values": [{"measurement": "Hydrogen peroxide oxidation: products formed (LC-MS)", "result": "Formation of the chelator (HAPI) and the intermediate of the self-immolative deprotection reaction was observed"}]}]}
